Assay [1] has as its system human neutrophils. In words: Binding of DTAF-labeled PGG β-glucan to human neutrophils, with excess unlabeled competitor. In kind it is cell-based. As to conditions: 10 mg/mL unlabeled competitor; 25 μg/mL DTAF-labeled β-glucan.
Another assay deals with T1, iC3b (Homo sapiens, UniProt P01024).
T1 construct: from tissue
In words: Immunoprecipitation of PGG β-glucan with BfD IV and detection of pulled-down iC3b. Format: binding. The method, then:
PGG β-glucan or dextran at concentration 60-80 mg/mL was incubated with regular or HI serum at 1:10 volume ratio for 30 minutes in a 37° C. water bath. BfD IV Ab was added to the serum/β-glucan mixture and incubated at room temperature for additional 30 minutes. Magnetic beads conjugated with rat anti-mouse IgM (DYNABEADS, Invitrogen, Camarillo, Calif.) were washed three times with DPBS and incubated with serum-PGG β-glucan-BfD IV mixture for another 30 minutes at room temperature. The beads were separated magnetically and iC3b pulled-down along with immunoprecipitated PGG was probed using FITC-conjugated complement C3 Ab by flow cytometer.

For another assay, the system named is T-cells. In words: Binding of PGG β-glucan to T-cells within PBMC (BfD IV staining, flow cytometry). Format: cell-based, human. The settings on record: 100, 200, 400 μg/mL; 10% autologous serum; 37° C.; two hours. The protocol:
Enriched neutrophils or PBMC were resuspended at 1×10^6 cells/mL in RPMI 1640 supplemented with 10% serum. PGG β-glucan at hexose concentrations 100 μg/mL, 200 μg/mL, or 400 μg/mL were added to neutrophils or PBMC and incubated in a 37° C., 5% CO2 humidified incubator for two hours. After incubation, cells were washed twice with FACS buffer (HBSS supplemented with 1% FBS and 0.1% sodium azide) to remove any unbound β-glucan, and subsequently treated with Fc block (Miltenyi Biotec, Auburn, Calif.). After the Fc block step, cells were stained with the BfD IV Ab for 30 minutes at 4° C. and washed twice with cold FACS buffer. Cells were then incubated with FITC-conjugated F(ab′)2 goat anti-mouse IgM for 30 minutes at 4° C. and washed once with cold FACS buffer before fixing with 1% paraformaldehyde.
In early optimization experiments, neutrophils, monocytes, and T cells were identified by staining with fluorescently labeled anti-CD 15, anti-CD 14, or anti-CD3 Abs, respectively. […] Surface binding of DTAF-conjugated β-glucan was subsequently assessed by flow cytometric analysis. To determine receptor-specific binding, binding of 25 μg/mL of DTAF-labeled PGG β-glucan was assessed by incubating the labeled β-glucan with the cells in the presence of 10 mg/mL of unlabeled PGG β-glucan or dextran.

For a further assay, the system named is sC5b-9 complex. Put plainly: Measurement of fluid-phase SC5b-9 complex formation in the serum. Format: biochemical, human. The method, then:
The MicroVue SC5b-9 EIA kit was used to measure activation of the classical and alternative pathways of complement according to the vendor's instruction (Quidel Corp., San Diego, Calif.). Briefly, the serum, untreated or treated was mixed with PBS, Ab-sensitized sheep RBC (SRBC), or 20 units of CVF and added to plate wells pre-coated with anti-sC5b-9 monoclonal antibody. The plate was incubated at 37° C. for 60 minutes, followed by five washes with the provided wash buffer. The plate was then incubated with the provided SC5b-9 Plus Conjugate, which contained horseradish peroxidase-conjugated Ab specific for sC5b-9 at room temperature for 30 minutes. The plate was washed five times, incubated with the substrate for 15 minutes at room temperature to initiate the enzymatic reaction and subsequently quenched with the stop solution. OD450 Was measured using the spectrophotometer SpectraMAX 250. The concentration of fluid phase sC5b-9 present in the samples was determined from the standard curve generated with the provided sC5b-9 standards.

For assay [2], the system named is human neutrophils. In words: iC3b staining on PGG β-glucan-bound neutrophils (flow cytometry, confocal microscopy). Format: cell-based. The method, then:
Binding of PGG β-glucan to neutrophils and PBMC was done as above. iC3b deposition on these cells was detected by staining with a neo-epitope specific anti-iC3b Ab and PE-conjugated goat anti-mouse IgG and analyzing by flow cytometry.
Enriched neutrophils, resuspended at 1×10^6 cells/mL in either RPMI supplemented with 20% serum or heat-inactivated serum, were mixed with PGG β-glucan before being applied to a 10 mm glass cover slip placed in the well of a 24-well plate. The plate was incubated in a 37° C., humidified 5% CO2 incubator for one hour. Unbound cells and PGG β-glucan were removed by washing with warmed PBS, and bound cells were subsequently fixed in 1% formaldehyde at room temp for 15 minutes. Cells were blocked with FCR blocking agent prior to staining with BFD IV and anti-iC3b monoclonal antibody for 30 minutes at 4° C., and followed by the secondary staining antibodies Cy5-conjugated goat anti-mouse IgM and Cy3-conjugated goat anti-mouse IgG at 4° C. for 30 minutes. Cells were penneabilized with 0.1% ice-cold TritonX-100 for three minutes on ice, stained with DAPI on ice for five minutes before mounting onto slides. Images were analyzed and acquired with Olympus FluoView 1000 IX2 Inverted confocal microscope. Images were adjusted equally in Adobe Photoshop (Adobe Systems Inc., San Jose, Calif.).
(Flow cytometry measures light scatter and fluorescence of single cells or particles in a stream.)

Assay [3] concerns human neutrophils. Put plainly: Binding of PGG β-glucan after serum pre-treatment, neutrophils. In kind it is cell-based. As to conditions: 200 μg/mL; 10% HI serum; two hours at 37° C. The method, then: PGG β-glucan at concentration 60-80 mg/mL was incubated with human serum at 1:10 volume ratio for 30 minutes in a 37° C. water bath. The serum-pretreated PGG β-glucan was added to neutrophils at 200 μg/mL or to PBMC at 100 μg/mL resuspended in RPM1 containing either 10% regular autologous serum or 10% HI serum at indicated time and temperature of incubation. Binding was then determined as described previously.
To determine the role of complement proteins in binding, experiments were performed as described above except for using serum containing 10% HI, compstatin-treated or methylamine (MA)-treated, EGTA- or EGTA+MgCl2 (MgEGTA)-treated, or factor D-blocked serum. Heat-inactivated (HI) serum was prepared by incubating serum in a 56° C. water bath for 30 minutes. […] Treatment of serum with methylamine (MA) was done by incubating serum with 0.67% of methylamine for 2.5 hours at 37° C., followed by three washes with DPBS using Amicon centrifugal filter unit with a 3K MW cut-off (Millipore, Billerica, Mass.). DPBS-treated serum was prepared in the same manner and used as control serum for MA-treated serum. For blocking of factor D in the serum, 166-32 at concentration 20 μg/mL was incubated with serum on ice for 30 minutes, and then used for binding studies. […]

T1 sequence (P01024 749-1303 limits assumed): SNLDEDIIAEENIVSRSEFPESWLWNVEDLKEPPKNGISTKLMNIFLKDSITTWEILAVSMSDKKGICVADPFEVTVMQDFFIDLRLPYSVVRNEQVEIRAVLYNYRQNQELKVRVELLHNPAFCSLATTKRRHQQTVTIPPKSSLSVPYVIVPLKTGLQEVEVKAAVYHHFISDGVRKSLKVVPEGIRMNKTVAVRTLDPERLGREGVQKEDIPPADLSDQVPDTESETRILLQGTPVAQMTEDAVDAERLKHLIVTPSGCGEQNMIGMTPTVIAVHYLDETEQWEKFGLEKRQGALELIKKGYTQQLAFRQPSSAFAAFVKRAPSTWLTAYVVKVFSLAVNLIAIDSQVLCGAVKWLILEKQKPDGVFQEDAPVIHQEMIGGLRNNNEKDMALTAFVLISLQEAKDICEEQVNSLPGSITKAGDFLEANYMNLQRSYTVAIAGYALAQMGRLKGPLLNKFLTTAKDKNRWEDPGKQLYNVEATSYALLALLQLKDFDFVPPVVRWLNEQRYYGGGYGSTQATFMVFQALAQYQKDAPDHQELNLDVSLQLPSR
T1 sequence (P01024 23-667 partner limits assumed): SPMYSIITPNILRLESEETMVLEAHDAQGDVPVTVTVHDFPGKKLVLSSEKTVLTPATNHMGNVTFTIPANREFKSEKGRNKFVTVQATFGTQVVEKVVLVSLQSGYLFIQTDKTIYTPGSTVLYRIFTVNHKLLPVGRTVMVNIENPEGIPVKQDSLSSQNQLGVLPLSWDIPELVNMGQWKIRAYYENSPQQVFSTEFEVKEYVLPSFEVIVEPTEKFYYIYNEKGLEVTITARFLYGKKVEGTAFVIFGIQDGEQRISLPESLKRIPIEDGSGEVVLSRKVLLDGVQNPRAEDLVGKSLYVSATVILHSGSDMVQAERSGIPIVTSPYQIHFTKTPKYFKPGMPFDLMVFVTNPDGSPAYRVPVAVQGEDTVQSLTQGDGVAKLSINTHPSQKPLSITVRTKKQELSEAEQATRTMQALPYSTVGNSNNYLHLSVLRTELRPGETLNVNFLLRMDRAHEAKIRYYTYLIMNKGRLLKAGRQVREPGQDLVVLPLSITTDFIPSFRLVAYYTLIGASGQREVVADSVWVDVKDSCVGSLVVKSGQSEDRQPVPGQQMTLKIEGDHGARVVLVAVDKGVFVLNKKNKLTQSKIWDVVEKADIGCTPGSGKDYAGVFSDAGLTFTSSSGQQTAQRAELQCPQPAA
T1 sequence (P01024 1321-1663 partner limits assumed): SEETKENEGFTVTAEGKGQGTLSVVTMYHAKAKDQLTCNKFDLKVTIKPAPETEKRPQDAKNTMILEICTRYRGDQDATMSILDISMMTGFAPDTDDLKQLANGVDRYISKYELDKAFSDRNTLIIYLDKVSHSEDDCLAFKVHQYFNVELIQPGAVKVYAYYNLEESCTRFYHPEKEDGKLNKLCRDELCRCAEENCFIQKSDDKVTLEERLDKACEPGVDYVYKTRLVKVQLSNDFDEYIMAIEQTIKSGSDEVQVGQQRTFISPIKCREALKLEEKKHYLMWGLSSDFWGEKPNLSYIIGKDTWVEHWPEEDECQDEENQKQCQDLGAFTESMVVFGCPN

In the case of “β(1,6)-[poly-1,3)-D-glucopyranosyl]-poly-β(1,3)-D-glucopyranose [PGG β-glucan]”, in the assay with human neutrophils [1], the “Blocking of DTAF-labeled β-glucan staining by excess unlabeled glucan” value was “blocked by excess unlabeled β-glucan”. Moreover, the “iC3b pulled down with BfD IV immunoprecipitate” value at iC3b (glucan incubated with HI serum) is given as “no iC3b was detected”; on iC3b (glucan incubated with regular serum), “iC3b protein was pulled-down”. In addition, the “Binding (MFI and percentage of BfD IV positive cells)” value in the assay on T-cells is recorded as “not to T-cells”. In addition, the “Formation of terminal complement complexes (fluid phase MAC) in serum treated with the glucan” value in the assay on sC5b-9 complex is listed as “did not activate formation of terminal complement complexes”. Also, the “iC3b staining on cells incubated with β-glucan vs serum alone” value in the assay with human neutrophils [2] (200 μg/mL, 10% serum, 37° C., two hours) is on record as “increased staining of iC3b”. Besides, the “Co-localization of bound glucan and iC3b (confocal microscopy)” value with human neutrophils [2] (BfD IV and anti-iC3b double staining) is recorded as “co-localized”. In addition, the “Extent of rescued binding to cells in HI serum (MFI, percentage of BfD IV positive cells)” value with human neutrophils [3] is “minimal”.

These data come from patent US10092657B2, “Opsonized β-glucan preparations and methods” (Biothera, Inc., priority 2011, dated 2018).
